From PMC6199744, “Development of Chemical Proteomics for the Folateome and Analysis of the Kinetoplastid Folateome” (ACS Infectious Diseases, 2018)
Where two headings read alike, the source gives them in different places.

Tests used:
Assay type in all cases: binding
[1] = biological target: T1, HeLa cell extract proteins (Homo sapiens, UniProt Q14204)
T1 construct: endogenous in cells; host or cells: HeLa cell extract

[2] = biological target: T2, HeLa cell extract proteins (Homo sapiens, UniProt P52907)
T2 construct: endogenous in cells; host or cells: HeLa cell extract

[3] = biological target: T3, HeLa cell extract proteins (Homo sapiens, UniProt Q7Z4G4)
T3 construct: endogenous in cells; host or cells: HeLa cell extract
T3 sequence (Q7Z4G4 1-463): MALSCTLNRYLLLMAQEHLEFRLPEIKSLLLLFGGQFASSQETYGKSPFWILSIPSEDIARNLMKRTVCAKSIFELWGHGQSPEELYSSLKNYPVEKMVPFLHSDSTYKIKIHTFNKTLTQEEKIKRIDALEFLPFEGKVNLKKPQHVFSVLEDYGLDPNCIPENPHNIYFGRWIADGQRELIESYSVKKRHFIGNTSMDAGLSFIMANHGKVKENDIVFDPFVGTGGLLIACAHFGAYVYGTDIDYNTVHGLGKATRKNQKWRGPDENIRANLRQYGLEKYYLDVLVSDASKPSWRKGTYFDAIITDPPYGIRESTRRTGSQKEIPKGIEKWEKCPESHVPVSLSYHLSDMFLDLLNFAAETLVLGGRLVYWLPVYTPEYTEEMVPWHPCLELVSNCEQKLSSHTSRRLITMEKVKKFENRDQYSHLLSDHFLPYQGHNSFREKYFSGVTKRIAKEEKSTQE

[4] = biological target: T4, HeLa cell extract proteins (Homo sapiens, UniProt P31942)
T4 construct: endogenous in cells; host or cells: HeLa cell extract
T4 sequence (P31942 1-346): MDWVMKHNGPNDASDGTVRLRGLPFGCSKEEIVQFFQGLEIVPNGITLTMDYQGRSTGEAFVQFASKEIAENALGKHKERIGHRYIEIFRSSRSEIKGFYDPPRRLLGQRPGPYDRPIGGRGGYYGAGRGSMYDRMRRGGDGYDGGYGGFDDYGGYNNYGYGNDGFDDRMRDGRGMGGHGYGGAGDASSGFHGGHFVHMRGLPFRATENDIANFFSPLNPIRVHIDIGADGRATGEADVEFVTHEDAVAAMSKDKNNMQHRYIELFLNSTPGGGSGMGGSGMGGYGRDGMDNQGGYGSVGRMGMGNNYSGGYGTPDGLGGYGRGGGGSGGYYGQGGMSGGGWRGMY

[5] = biological target: T5, HeLa cell extract proteins (Homo sapiens, UniProt P53621)
T5 construct: endogenous in cells; host or cells: HeLa cell extract
T5 sequence (P53621 1-1224): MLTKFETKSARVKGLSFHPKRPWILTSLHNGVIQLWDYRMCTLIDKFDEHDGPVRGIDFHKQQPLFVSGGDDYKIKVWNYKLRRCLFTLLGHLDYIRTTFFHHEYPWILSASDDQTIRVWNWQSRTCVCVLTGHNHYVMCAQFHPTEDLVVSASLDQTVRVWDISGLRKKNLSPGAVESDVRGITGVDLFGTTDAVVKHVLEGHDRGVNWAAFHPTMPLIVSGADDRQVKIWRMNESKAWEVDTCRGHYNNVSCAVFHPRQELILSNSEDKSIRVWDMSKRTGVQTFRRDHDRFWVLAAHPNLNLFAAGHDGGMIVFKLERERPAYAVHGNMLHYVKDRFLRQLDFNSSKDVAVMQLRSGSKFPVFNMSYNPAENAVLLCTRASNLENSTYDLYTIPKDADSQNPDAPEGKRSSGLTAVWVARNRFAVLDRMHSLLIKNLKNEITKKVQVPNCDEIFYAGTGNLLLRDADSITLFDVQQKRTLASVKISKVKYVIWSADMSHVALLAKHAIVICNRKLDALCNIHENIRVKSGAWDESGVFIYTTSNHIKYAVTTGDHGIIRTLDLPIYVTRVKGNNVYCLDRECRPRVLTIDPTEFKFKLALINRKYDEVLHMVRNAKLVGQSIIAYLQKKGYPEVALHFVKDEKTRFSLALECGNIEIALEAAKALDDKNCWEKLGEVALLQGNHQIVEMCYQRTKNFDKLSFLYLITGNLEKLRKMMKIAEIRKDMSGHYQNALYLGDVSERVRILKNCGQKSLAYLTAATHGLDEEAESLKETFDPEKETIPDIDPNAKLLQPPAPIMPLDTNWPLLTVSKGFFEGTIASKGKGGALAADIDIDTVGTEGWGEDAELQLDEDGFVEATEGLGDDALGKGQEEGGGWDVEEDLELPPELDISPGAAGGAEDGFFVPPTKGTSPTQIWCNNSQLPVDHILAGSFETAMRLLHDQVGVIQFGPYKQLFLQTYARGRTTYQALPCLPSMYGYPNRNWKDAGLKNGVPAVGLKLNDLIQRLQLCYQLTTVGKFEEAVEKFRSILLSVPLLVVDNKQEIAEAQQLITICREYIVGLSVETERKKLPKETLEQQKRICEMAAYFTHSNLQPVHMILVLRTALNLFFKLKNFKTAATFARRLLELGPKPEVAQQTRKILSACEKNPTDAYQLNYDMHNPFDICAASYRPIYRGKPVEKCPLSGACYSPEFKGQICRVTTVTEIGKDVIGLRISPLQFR

[6] = biological target: T6, HeLa cell extract proteins (Homo sapiens, UniProt Q8NF37)
T6 construct: endogenous in cells; host or cells: HeLa cell extract
T6 sequence (Q8NF37 1-534): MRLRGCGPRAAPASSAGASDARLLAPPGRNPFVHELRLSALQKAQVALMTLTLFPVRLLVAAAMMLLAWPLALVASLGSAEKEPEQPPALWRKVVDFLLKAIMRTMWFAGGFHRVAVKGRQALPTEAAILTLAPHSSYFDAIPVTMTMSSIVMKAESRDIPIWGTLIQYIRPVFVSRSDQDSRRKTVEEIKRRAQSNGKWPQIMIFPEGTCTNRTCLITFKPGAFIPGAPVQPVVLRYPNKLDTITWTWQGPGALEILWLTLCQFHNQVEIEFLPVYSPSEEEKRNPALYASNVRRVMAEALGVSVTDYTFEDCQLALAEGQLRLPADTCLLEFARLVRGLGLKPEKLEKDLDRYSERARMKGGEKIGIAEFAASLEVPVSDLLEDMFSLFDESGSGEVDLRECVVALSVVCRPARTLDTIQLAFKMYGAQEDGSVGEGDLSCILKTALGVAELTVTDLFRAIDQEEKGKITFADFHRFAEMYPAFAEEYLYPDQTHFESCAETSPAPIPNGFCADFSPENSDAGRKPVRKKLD

T1 sequence (Q14204 whole entry): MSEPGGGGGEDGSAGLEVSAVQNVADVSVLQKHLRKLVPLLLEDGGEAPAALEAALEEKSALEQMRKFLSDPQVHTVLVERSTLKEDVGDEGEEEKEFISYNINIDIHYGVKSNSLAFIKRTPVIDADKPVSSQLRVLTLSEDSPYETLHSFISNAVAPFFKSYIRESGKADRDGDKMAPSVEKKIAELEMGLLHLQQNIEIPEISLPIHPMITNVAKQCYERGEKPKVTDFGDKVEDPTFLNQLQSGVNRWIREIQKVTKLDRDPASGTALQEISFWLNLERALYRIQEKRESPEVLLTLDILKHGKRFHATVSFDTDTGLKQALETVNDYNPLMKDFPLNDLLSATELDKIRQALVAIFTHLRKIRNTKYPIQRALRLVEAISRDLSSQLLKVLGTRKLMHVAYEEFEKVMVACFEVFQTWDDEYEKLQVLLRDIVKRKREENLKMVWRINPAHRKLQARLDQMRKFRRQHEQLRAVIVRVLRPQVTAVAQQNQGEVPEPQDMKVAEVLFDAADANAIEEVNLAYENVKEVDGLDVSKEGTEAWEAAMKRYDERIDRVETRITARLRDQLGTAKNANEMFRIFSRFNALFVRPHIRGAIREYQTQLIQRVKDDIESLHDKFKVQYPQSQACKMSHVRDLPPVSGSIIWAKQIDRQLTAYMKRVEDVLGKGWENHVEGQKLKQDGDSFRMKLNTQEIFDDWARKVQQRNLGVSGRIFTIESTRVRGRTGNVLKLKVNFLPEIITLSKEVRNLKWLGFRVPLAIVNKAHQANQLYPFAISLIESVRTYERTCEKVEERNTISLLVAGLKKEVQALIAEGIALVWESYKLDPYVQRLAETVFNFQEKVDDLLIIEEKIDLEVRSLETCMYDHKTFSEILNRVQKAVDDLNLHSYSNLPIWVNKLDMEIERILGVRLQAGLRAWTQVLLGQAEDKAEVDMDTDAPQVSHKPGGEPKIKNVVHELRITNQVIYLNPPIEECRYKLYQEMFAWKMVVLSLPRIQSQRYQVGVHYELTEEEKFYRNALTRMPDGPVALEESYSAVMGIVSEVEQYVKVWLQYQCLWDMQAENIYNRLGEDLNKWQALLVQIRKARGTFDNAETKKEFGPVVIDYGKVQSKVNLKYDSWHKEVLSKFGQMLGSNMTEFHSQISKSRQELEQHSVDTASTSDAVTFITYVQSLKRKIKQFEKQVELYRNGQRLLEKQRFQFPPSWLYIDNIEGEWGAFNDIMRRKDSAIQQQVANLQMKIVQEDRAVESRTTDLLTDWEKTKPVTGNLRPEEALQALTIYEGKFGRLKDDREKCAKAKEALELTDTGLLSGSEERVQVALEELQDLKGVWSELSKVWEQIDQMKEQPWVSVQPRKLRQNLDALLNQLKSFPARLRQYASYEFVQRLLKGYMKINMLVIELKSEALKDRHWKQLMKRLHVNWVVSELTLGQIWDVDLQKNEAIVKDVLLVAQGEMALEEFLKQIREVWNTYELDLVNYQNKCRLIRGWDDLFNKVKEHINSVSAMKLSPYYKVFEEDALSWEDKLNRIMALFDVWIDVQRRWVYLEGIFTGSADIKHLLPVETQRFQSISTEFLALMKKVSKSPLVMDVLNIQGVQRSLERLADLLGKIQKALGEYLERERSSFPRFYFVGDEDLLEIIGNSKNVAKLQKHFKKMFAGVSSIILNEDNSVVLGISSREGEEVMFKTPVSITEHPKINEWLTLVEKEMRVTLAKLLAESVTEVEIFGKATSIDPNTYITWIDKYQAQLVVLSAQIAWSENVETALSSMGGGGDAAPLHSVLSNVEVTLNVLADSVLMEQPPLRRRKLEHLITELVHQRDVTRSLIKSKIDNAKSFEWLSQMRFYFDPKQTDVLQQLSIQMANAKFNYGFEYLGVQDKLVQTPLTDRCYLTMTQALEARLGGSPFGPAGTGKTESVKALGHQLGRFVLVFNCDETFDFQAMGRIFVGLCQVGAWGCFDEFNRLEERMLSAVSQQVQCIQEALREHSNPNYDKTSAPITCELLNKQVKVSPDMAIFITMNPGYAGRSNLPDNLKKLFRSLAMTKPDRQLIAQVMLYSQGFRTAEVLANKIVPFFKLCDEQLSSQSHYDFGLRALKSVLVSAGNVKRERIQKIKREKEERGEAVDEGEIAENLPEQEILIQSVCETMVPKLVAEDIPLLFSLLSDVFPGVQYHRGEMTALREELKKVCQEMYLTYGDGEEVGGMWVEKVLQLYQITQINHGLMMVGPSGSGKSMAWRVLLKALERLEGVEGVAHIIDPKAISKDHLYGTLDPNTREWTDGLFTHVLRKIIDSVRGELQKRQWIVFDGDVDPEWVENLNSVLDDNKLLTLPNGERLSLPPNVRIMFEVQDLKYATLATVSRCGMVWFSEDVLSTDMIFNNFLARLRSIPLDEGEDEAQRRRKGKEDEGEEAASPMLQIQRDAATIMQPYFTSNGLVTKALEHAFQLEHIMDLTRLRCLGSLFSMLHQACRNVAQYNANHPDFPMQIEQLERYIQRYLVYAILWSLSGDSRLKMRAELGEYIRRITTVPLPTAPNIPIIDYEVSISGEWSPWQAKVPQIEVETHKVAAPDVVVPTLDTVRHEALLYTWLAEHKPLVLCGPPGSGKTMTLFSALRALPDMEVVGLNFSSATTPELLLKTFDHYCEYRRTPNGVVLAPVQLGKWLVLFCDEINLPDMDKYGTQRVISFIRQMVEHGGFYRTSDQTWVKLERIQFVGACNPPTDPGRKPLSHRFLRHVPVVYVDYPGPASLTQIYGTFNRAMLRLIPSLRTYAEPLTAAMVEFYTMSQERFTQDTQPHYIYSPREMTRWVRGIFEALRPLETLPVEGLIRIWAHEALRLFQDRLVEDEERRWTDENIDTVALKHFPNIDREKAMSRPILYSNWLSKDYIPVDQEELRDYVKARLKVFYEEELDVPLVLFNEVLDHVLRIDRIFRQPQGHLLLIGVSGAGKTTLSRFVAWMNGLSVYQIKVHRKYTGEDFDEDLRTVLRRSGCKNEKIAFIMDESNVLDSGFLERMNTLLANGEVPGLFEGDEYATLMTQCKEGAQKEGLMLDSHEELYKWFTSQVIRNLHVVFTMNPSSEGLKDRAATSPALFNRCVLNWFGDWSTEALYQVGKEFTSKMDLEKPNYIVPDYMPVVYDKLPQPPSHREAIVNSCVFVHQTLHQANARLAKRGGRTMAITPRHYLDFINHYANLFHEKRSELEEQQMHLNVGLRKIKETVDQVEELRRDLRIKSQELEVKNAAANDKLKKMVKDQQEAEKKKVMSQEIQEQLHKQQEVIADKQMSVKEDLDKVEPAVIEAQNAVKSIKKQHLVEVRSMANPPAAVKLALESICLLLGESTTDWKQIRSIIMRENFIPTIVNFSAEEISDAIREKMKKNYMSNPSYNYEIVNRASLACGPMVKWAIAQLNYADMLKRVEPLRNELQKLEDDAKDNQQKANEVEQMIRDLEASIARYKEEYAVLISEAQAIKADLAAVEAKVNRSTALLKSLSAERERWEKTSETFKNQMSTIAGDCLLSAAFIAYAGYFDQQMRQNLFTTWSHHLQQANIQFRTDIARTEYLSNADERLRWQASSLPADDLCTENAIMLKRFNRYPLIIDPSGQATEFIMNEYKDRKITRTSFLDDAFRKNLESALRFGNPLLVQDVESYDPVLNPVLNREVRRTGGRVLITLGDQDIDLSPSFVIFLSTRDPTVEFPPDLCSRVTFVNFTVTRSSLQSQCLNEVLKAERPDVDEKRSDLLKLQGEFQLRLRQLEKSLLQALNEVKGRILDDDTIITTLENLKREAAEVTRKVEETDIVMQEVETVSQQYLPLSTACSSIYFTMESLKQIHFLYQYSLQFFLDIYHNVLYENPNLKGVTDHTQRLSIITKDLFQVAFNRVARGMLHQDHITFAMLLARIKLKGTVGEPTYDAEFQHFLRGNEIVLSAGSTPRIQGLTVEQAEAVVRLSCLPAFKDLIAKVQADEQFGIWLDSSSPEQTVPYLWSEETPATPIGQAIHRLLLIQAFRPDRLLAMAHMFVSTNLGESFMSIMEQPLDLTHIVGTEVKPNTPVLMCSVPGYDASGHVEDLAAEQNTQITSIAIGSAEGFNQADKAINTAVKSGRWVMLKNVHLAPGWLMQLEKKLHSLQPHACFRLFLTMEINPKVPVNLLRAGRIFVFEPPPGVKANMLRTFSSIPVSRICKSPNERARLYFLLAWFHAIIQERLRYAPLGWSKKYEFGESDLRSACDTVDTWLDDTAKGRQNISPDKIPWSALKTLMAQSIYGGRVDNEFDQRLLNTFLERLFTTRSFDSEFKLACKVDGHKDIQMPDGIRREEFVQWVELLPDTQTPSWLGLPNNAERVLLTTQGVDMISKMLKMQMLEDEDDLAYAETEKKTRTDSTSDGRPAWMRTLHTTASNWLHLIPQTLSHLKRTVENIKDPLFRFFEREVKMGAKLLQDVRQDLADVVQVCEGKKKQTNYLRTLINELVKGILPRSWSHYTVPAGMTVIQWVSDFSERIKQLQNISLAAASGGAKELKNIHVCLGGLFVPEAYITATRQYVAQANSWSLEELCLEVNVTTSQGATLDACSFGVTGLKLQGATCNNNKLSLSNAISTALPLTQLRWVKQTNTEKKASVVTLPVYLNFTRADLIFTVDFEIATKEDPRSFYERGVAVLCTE

Compound | fold changes relative to vehicle control ([1]; HeLa, captured protein DYNC1H1) | fold changes relative to vehicle control ([2]; HeLa, protein CAPZA1) | fold changes relative to vehicle control ([3]; HeLa, captured protein TRMT11) | fold changes relative to vehicle control ([4]; HeLa, captured protein HNRNPH3) | fold changes relative to vehicle control ([5]; protein COPA, HeLa) | fold changes relative to vehicle control ([6]; protein LPCAT1, HeLa) | fold changes relative to vehicle control [1] | fold changes relative to vehicle control [2] | fold changes relative to vehicle control [3] | fold changes relative to vehicle control [4] | fold changes relative to vehicle control [5] | fold changes relative to vehicle control [6] | fold changes relative to vehicle control ([1]; protein DYNC1H1, HeLa) | fold changes relative to vehicle control ([2]; protein CAPZA1, HeLa) | fold changes relative to vehicle control ([3]; HeLa, protein TRMT11) | fold changes relative to vehicle control ([4]; protein HNRNPH3, HeLa) | fold changes relative to vehicle control ([6]; HeLa, protein LPCAT1)
Nc1nc2c(c(=O)[nH]1)N(C=O)C(CNc1ccc(C(=O)N[C@@H](CCC(=O)O)C(=O)O)cc1)CN2 (stereo partly drawn) [LEU, leucovorin] | 1.02 | 0.89 | 1.15 | 0.94 | 0.81 | 0.85 | – | – | – | – | – | – | – | – | – | – | –
Nc1nc2[nH]cc(CCc3ccc(C(=O)N[C@@H](CCC(=O)O)C(=O)O)cc3)c2c(=O)[nH]1 [PTX, pemetrexed] | – | – | – | – | – | – | 0.99 | 1.02 | 0.85 | 0.94 | 0.82 | 1 | – | – | – | – | –
CCCCCCOc1ccc(Cc2cnc(N)nc2N)cc1 [compound 1] | – | – | – | – | 1.07 | – | – | – | – | – | – | – | 1 | 1.13 | 1.13 | 1.08 | 0.93
CCCCCCOc1cccc(Cc2cnc(N)nc2N)c1 [compound 2] | – | – | – | – | 1.31 | – | – | – | – | – | – | – | 1.03 | 1.32 | 1.19 | 0.97 | 1.07
Nc1nc2cccc(-c3ccccc3)c2n1Cc1ccc(Cl)c(Cl)c1 [compound 3] | – | – | – | – | 0.93 | – | – | – | – | – | – | – | 1.07 | 1.15 | 0.96 | 1.09 | 1.11
NCCOCCOCC(=O)Nc1nc2ncc(CNc3ccc(C(=O)NC(CCC(=O)O)C(=O)O)cc3)nc2c(=O)[nH]1 (stereo not drawn) [compound 6] | 1.11 | 1.11 | 0.86 | 0.99 | 1 | 0.92 | – | – | – | – | – | – | – | – | – | – | –
NCCCNc1ccc(C(=O)NC(CCC(=O)O)C(=O)O)cc1 (stereo not drawn) [compound 7] | 1.1 | 1.09 | 1.07 | 1.01 | 0.89 | 1.07 | – | – | – | – | – | – | – | – | – | – | –
